Patent US20090170897A1, “Method of Treating Neuropathic Pain” (Pfizer, Inc., priority 2004, published 2009)

What was measured:
CRTH2 receptor = target: T1, CRTH2 receptor (Rattus norvegicus, UniProt Q6XKD3); assay: IC50 at rat CRTH2 receptor (rIC50)
T1 sequence (Q6XKD3 1-403): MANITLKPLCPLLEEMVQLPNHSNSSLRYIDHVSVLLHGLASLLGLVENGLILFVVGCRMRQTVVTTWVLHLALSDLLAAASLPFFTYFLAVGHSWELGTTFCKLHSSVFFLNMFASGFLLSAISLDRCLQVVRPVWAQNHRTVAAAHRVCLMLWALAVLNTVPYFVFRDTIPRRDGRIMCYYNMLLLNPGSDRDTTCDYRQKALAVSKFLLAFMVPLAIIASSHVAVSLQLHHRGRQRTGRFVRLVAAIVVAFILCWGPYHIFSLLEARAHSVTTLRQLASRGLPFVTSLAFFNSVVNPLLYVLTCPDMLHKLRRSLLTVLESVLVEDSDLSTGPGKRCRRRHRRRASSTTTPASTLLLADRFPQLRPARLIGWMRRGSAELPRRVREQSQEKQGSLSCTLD

[1] = test system: Streptozocin (STZ)-induced diabetes neuropathy in the rat; assay: STZ-induced dynamic allodynia (cotton bud, PWL); type: in vivo
Procedure: (§1) Male Sprague Dawley rats weighing 150-400 g obtained from Charles River (Manston, Kent, UK.) were housed in groups of 3. All animals were kept under a 12 h light/dark cycle (lights on at 07 h 00 min) with food and water ad libitum. All experiments were carried out by an observer blind to the treatments and in accordance with the Home Office Animals (Scientific Procedures) Act 1986.
Diabetes was induced by a single intraperitoneal injection of streptozotocin (50 mg/kg) freshly dissolved in 0.9% sterile saline. Streptozotocin injection induces a reproducible mechanical allodynia within 3 weeks, lasting for at least 7 weeks (Chen and Pan, (Chen S R and Pan H L. Hypersensitivity of Spinothalamic Tract Neurons Associated With Diabetic Neuropathic Pain in Rats. J Neurophysiol 87: 2726-2733, 2002).
(§2) Dynamic allodynia was assessed by lightly stroking the plantar surface of the hind paw with a cotton bud. To avoid recording general motor activity, care was taken to perform this procedure in fully habituated rats that were not active. At least two measurements were taken at each time point, the mean of which represented the paw withdrawal latency (PWL). […] A pain withdrawal response was often accompanied with repeated flinching or licking of the paw. Dynamic allodynia was considered to be present if animals responded to the cotton stimulus within 8 sec of commencing stroking (Field et al, 1999).
(§3) All the experiments were conducted blind. Static allodynia was expressed as median [LQ; UQ] and analysed by Mann Whitney U test. Dynamic allodynia and thermal hyperalgesia were expressed as arithmetic mean±SEM and analysed by ANOVA.

[2] = test system: Chronic Constriction Injury (CCI) rat model of neuropathic pain; assay: CCI-induced dynamic allodynia (cotton bud, PWL); type: in vivo
Procedure: as §1
The CCI of sciatic nerve was performed as previously described by Bennett and Xie (Bennett G J, Xie Y K. A peripheral mononeuropathy in rat that produces disorders of pain sensation like those seen in man. Pain:33:87-107, 1988). Animals were anaesthetised with a 2% isofluorane/O2 mixture. The right hind thigh was shaved and swabbed with 1% iodine. Animals were then transferred to a homeothermic blanket for the duration of the procedure and anaesthesia maintained during surgery via a nose cone. The skin was cut along the line of the thighbone. The common sciatic nerve was exposed at the middle of the thigh by blunt dissection through biceps femoris. About 7 mm of nerve was freed proximal to the sciatic trifurcation, by inserting forceps under the nerve and the nerve gently lifted out of the thigh. Suture was pulled under the nerve using forceps and tied in a simple knot until slight resistance was felt and then double knotted. The procedure was repeated until 4 ligatures (4-0 silk) were tied loosely around the nerve with approx 1 mm spacing. The incision was closed in layers.
as §2, §3

With `CC(=O)N(C1CC1)C1CC(C)N(C(=O)c2cccnc2)c2ccccc21` (stereo not shown) [N-cyclopropyl-N-[2-methyl-1-(pyridine-3-carbonyl)-1,2,3,4-tetrahydro-quinolin-4-yl]-acetamide] the IC50 (CRTH2 receptor) was 45 nM, the “duration of biologically relevant effect, STZ dynamic allodynia” value ([1]; 25 mg/kg PO) was “up to 2 hr” and the “time of peak effect, STZ dynamic allodynia” value ([1]; 25 mg/kg PO, post compound dose) was 1 h. For the same molecule, the “effect on maintenance of STZ-induced dynamic allodynia” value ([1]; compound 25 mg/kg PO, gabapentin 100 mg/kg PO (positive control)) was “reversed”, the “time of peak effect, dynamic allodynia” value ([2]; 25 mg/kg PO (MED), post administration) was 1 h and the “effect on maintenance of CCI-induced dynamic allodynia” value ([2]; 12.5, 25 and 50 mg/kg PO, from 14 days post surgery) was “reversed the maintenance of CCI-induced static and dynamic allodynia in a dose dependent manner”. The “MED, dynamic allodynia” value ([2]; PO) was 25 mg/kg, the “dynamic allodynia effect relative to gabapentin” value ([2]; highest dose (50 mg/kg PO) vs gabapentin 100 mg/kg PO) was “less potent but significantly different from vehicle treated CCI rats” and the “dynamic allodynia paw withdrawal latency (mean±SEM)” value ([2]; highest dose (50 mg/kg PO), 2 hrs post administration, vehicle 3.5±0.7) was 11.8±1.0. The “onset of anti-allodynic effect, dynamic allodynia” value ([2]; highest dose (50 mg/kg PO), post dose, p<0.01 vs vehicle) was 30 min.
